The values below come from ChEMBL document CHEMBL1142848, “Synthesis and antibacterial activity of N-(5-benzylthio-1,3,4-thiadiazol-2-yl) and N-(5-benzylsulfonyl-1,3,4-thiadiazol-2-yl)piperazinyl quinolone derivatives” (2005).

In brackets after ≈: the same amount, converted by molar mass.

Type in all cases: functional
For one experiment, the system named is Escherichia coli. Put plainly: Minimum inhibitory concentration against Escherichia coli.
For another experiment, the system named is Bacillus subtilis. Kind of experiment: Minimum inhibitory concentration against Bacillus subtilis.
A further experiment deals with Klebsiella pneumoniae. Kind of experiment: Minimum inhibitory concentration against Klebsiella pneumoniae.
The subject of a further experiment is Pseudomonas aeruginosa. Kind of experiment: Minimum inhibitory concentration against Pseudomonas aeruginosa.
The test system of a further experiment is Staphylococcus aureus. Kind of experiment: Minimum inhibitory concentration against Staphylococcus aureus.
In experiment [1] the test system is Staphylococcus epidermidis. Put plainly: Minimum inhibitory concentration against Staphylococcus epidermidis.

For orientation: MIC means the lowest concentration that inhibits growth of the organism. Higher therefore signals a less susceptible organism.

Turning to `O=C(O)c1cn(C2CC2)c2cc(N3CCN(c4nnc(S(=O)(=O)Cc5ccc([N+](=O)[O-])cc5)s4)CC3)c(F)cc2c1=O`, the MIC against Escherichia coli was > 64 µg/mL; against Bacillus subtilis, 1 µg/mL (≈ 1.63 µM); in the experiment with Klebsiella pneumoniae, 64 µg/mL (≈ 104 µM); against Pseudomonas aeruginosa it was > 64 µg/mL; in the experiment with Staphylococcus aureus it was 8 µg/mL (≈ 13 µM); in experiment [1], 2 µg/mL (≈ 3.25 µM).
For the compound `CCn1cc(C(=O)O)c(=O)c2cc(F)c(N3CCN(c4nnc(S(=O)(=O)Cc5ccccc5)s4)CC3)cc21`, the MIC in the experiment with Escherichia coli was > 64 µg/mL; in the experiment on Bacillus subtilis it was 8 µg/mL (≈ 14.3 µM); against Klebsiella pneumoniae, > 64 µg/mL; in the experiment with Pseudomonas aeruginosa it was > 64 µg/mL; against Staphylococcus aureus it was 64 µg/mL (≈ 115 µM); in experiment [1] it was 16 µg/mL (≈ 28.7 µM).
With `O=C(O)c1cn(C2CC2)c2cc(N3CCN(c4nnc(SCc5ccc([N+](=O)[O-])cc5)s4)CC3)c(F)cc2c1=O`, the minimum inhibitory concentration (MIC) in the experiment on Escherichia coli is 1 µg/mL (≈ 1.72 µM); against Bacillus subtilis it was 0.5 µg/mL (≈ 0.858 µM); in the experiment on Klebsiella pneumoniae, 2 µg/mL (≈ 3.43 µM); in the experiment with Pseudomonas aeruginosa, 32 µg/mL (≈ 54.9 µM); in the experiment with Staphylococcus aureus, 0.5 µg/mL (≈ 0.858 µM); in experiment [1] it was 0.03 µg/mL (≈ 0.0515 µM).
`O=C(O)c1cn(C2CC2)c2cc(N3CCN(c4nnc(S(=O)(=O)Cc5cccc([N+](=O)[O-])c5)s4)CC3)c(F)cc2c1=O`: the minimal inhibitory concentration (MIC) with Escherichia coli was 8 µg/mL (≈ 13 µM); against Bacillus subtilis, 8 µg/mL (≈ 13 µM); with Klebsiella pneumoniae it was 16 µg/mL (≈ 26 µM); against Pseudomonas aeruginosa, > 64 µg/mL; with Staphylococcus aureus, 1 µg/mL (≈ 1.63 µM); in experiment [1], 0.05 µg/mL (≈ 0.0813 µM).
Consider `O=C(O)c1cn(C2CC2)c2cc(N3CCN(c4nnc(S(=O)(=O)Cc5ccccc5[N+](=O)[O-])s4)CC3)c(F)cc2c1=O`, for which the MIC against Escherichia coli is 1 µg/mL (≈ 1.63 µM); against Bacillus subtilis it was 1 µg/mL (≈ 1.63 µM); in the experiment with Klebsiella pneumoniae it was 4 µg/mL (≈ 6.51 µM); with Pseudomonas aeruginosa it was > 32 µg/mL; in the experiment on Staphylococcus aureus, 4 µg/mL (≈ 6.51 µM); in experiment [1] it was 0.03 µg/mL (≈ 0.0488 µM).
For the compound `O=C(O)c1cn(C2CC2)c2cc(N3CCN(c4nnc(SCc5cccc([N+](=O)[O-])c5)s4)CC3)c(F)cc2c1=O`, the MIC with Escherichia coli was found to be 2 µg/mL (≈ 3.43 µM); against Bacillus subtilis, 4 µg/mL (≈ 6.87 µM); in the experiment on Klebsiella pneumoniae it was 2 µg/mL (≈ 3.43 µM); in the experiment on Pseudomonas aeruginosa, 64 µg/mL (≈ 110 µM); in the experiment with Staphylococcus aureus, 0.5 µg/mL (≈ 0.858 µM); in experiment [1], 0.06 µg/mL (≈ 0.103 µM).
For `CCn1cc(C(=O)O)c(=O)c2cc(F)c(N3CCN(c4nnc(S(=O)(=O)Cc5ccccc5[N+](=O)[O-])s4)CC3)cc21`, the MIC against Escherichia coli was 32 µg/mL (≈ 53.1 µM); against Bacillus subtilis, 16 µg/mL (≈ 26.6 µM); in the experiment on Klebsiella pneumoniae, 64 µg/mL (≈ 106 µM); against Pseudomonas aeruginosa it was > 64 µg/mL; in the experiment on Staphylococcus aureus, > 64 µg/mL; in experiment [1] it was > 64 µg/mL.
Take `CCn1cc(C(=O)O)c(=O)c2cc(F)c(N3CCN(c4nnc(SCc5ccccc5)s4)CC3)cc21`: the minimal inhibitory concentration (MIC) against Escherichia coli is 16 µg/mL (≈ 30.4 µM); in the experiment on Bacillus subtilis, 8 µg/mL (≈ 15.2 µM); against Klebsiella pneumoniae it was 16 µg/mL (≈ 30.4 µM); in the experiment on Pseudomonas aeruginosa, > 64 µg/mL; in the experiment on Staphylococcus aureus it was 16 µg/mL (≈ 30.4 µM); in experiment [1] it was 2 µg/mL (≈ 3.8 µM).
Consider `CCn1cc(C(=O)O)c(=O)c2cc(F)c(N3CCN(c4nnc(SCc5ccc([N+](=O)[O-])cc5)s4)CC3)cc21`, for which the MIC against Escherichia coli is 32 µg/mL (≈ 56.1 µM); with Bacillus subtilis, 2 µg/mL (≈ 3.5 µM); with Klebsiella pneumoniae, 64 µg/mL (≈ 112 µM); with Pseudomonas aeruginosa it was > 64 µg/mL; in the experiment on Staphylococcus aureus it was 4 µg/mL (≈ 7.01 µM); in experiment [1], 0.5 µg/mL (≈ 0.876 µM).
`O=C(O)c1cn(C2CC2)c2cc(N3CCN(c4nnc(SCc5ccccc5)s4)CC3)c(F)cc2c1=O`: the minimum inhibitory concentration (MIC) with Escherichia coli is 16 µg/mL (≈ 29.8 µM); against Bacillus subtilis, 4 µg/mL (≈ 7.44 µM); in the experiment with Klebsiella pneumoniae, 32 µg/mL (≈ 59.5 µM); in the experiment on Pseudomonas aeruginosa, > 64 µg/mL; in the experiment on Staphylococcus aureus it was 2 µg/mL (≈ 3.72 µM); in experiment [1], 1 µg/mL (≈ 1.86 µM).
On to `O=C(O)c1cn(C2CC2)c2cc(N3CCN(c4nnc(SCc5ccccc5[N+](=O)[O-])s4)CC3)c(F)cc2c1=O`, for which the MIC with Escherichia coli worked out at 2 µg/mL (≈ 3.43 µM); against Bacillus subtilis it was 4 µg/mL (≈ 6.87 µM); in the experiment on Klebsiella pneumoniae, 16 µg/mL (≈ 27.5 µM); against Pseudomonas aeruginosa it was 64 µg/mL (≈ 110 µM); in the experiment with Staphylococcus aureus, 2 µg/mL (≈ 3.43 µM); in experiment [1], 0.06 µg/mL (≈ 0.103 µM).
For the compound `CCn1cc(C(=O)O)c(=O)c2cc(F)c(N3CCN(c4nnc(S(=O)(=O)Cc5ccc([N+](=O)[O-])cc5)s4)CC3)cc21`, the MIC against Escherichia coli was > 64 µg/mL; in the experiment on Bacillus subtilis, 32 µg/mL (≈ 53.1 µM); with Klebsiella pneumoniae it was > 64 µg/mL; in the experiment on Pseudomonas aeruginosa, > 64 µg/mL; against Staphylococcus aureus it was 64 µg/mL (≈ 106 µM); in experiment [1] it was 8 µg/mL (≈ 13.3 µM).
`O=C(O)c1cn(C2CC2)c2cc(N3CCN(c4nnc(S(=O)(=O)Cc5ccccc5)s4)CC3)c(F)cc2c1=O`: the minimal inhibitory concentration (MIC) was > 64 µg/mL with Escherichia coli; 4 µg/mL (≈ 7.02 µM) in the experiment with Bacillus subtilis; > 64 µg/mL with Klebsiella pneumoniae; > 64 µg/mL against Pseudomonas aeruginosa; 16 µg/mL (≈ 28.1 µM) in the experiment on Staphylococcus aureus; 4 µg/mL (≈ 7.02 µM) in experiment [1].
On to `CCn1cc(C(=O)O)c(=O)c2cc(F)c(N3CCN(c4nnc(S(=O)(=O)Cc5cccc([N+](=O)[O-])c5)s4)CC3)cc21`, for which the minimum inhibitory concentration (MIC) is > 64 µg/mL against Escherichia coli; 64 µg/mL (≈ 106 µM) in the experiment with Bacillus subtilis; > 64 µg/mL in the experiment with Klebsiella pneumoniae; > 64 µg/mL against Pseudomonas aeruginosa; > 64 µg/mL in the experiment with Staphylococcus aureus; 64 µg/mL (≈ 106 µM) in experiment [1].
Turning to `CCn1cc(C(=O)O)c(=O)c2cc(F)c(N3CCN(c4nnc(SCc5ccccc5[N+](=O)[O-])s4)CC3)cc21`, the MIC with Escherichia coli is 16 µg/mL (≈ 28 µM); in the experiment with Bacillus subtilis it was 8 µg/mL (≈ 14 µM); against Klebsiella pneumoniae it was 32 µg/mL (≈ 56.1 µM); in the experiment on Pseudomonas aeruginosa, > 64 µg/mL; in the experiment with Staphylococcus aureus, 4 µg/mL (≈ 7.01 µM); in experiment [1], 0.5 µg/mL (≈ 0.876 µM).
On to `CCn1cc(C(=O)O)c(=O)c2cc(F)c(N3CCN(c4nnc(SCc5cccc([N+](=O)[O-])c5)s4)CC3)cc21`, for which the MIC against Escherichia coli was 16 µg/mL (≈ 28 µM); against Bacillus subtilis, 8 µg/mL (≈ 14 µM); with Klebsiella pneumoniae it was 16 µg/mL (≈ 28 µM); in the experiment with Pseudomonas aeruginosa, > 64 µg/mL; against Staphylococcus aureus it was 2 µg/mL (≈ 3.5 µM); in experiment [1], 0.25 µg/mL (≈ 0.438 µM).
As for `O=C(O)c1cn(C2CC2)c2cc(N3CCNCC3)c(F)cc2c1=O` [CIPROFLOXACIN], the minimal inhibitory concentration (MIC) against Bacillus subtilis came to 0.015 µg/mL (≈ 0.0453 µM); against Klebsiella pneumoniae, 0.06 µg/mL (≈ 0.181 µM); with Staphylococcus aureus it was 0.5 µg/mL (≈ 1.51 µM); in experiment [1], 0.25 µg/mL (≈ 0.754 µM).
On to `CCn1cc(C(=O)O)c(=O)c2cc(F)c(N3CCNCC3)cc21` [NORFLOXACIN], for which the MIC with Escherichia coli was 0.25 µg/mL (≈ 0.783 µM); in the experiment with Bacillus subtilis, 0.06 µg/mL (≈ 0.188 µM); in the experiment on Klebsiella pneumoniae it was 0.25 µg/mL (≈ 0.783 µM); against Pseudomonas aeruginosa, 2 µg/mL (≈ 6.26 µM); in the experiment on Staphylococcus aureus, 1 µg/mL (≈ 3.13 µM); in experiment [1], 0.5 µg/mL (≈ 1.57 µM).
